Test results published in US11407715B2, “Substituted indoline derivatives as dengue viral replication inhibitors” (JANSSEN PHARMACEUTICALS, INC., priority 2017, dated 2022).

What was measured:
[1] = test system: DENV-4 strain H241; experiment: Tetravalent RT-qPCR assay, serotype 4; type: cell-based, Dengue virus; settings: RT-qPCR serotype 4 H241, Vero cells
Procedure: (§1) The antiviral activity of the compounds of the invention was tested against DENV-1 strain TC974#666 (NCPV), DENV-2 strain 16681, DENV-3 strain H87 (NCPV) and DENV-4 strain H241 (NCPV) in a RT-qPCR assay. Therefore, Vero cells were infected with either DENV-1, or -2, or -3, or -4 in the presence or absence of test compounds. At day 3 post-infection, the cells were lysed and cell lysates were used to prepare cDNA of both a viral target (the 3′UTR of DENV; Table 2) and a cellular reference gene (β-actin, Table 2). Subsequently, a duplex real time PCR was performed on a Lightcycler480 instrument. The generated Cp value is inversely proportional to the amount of RNA expression of these targets. Inhibition of DENV replication by a test compound results in a shift of Cp's for the 3′UTR gene. On the other hand, if a test compound is toxic to the cells, a similar effect on β-actin expression will be observed. The comparative ΔΔCp method is used to calculate ECs50, which is based on the relative gene expression of the target gene (3′UTR) normalized with the cellular housekeeping gene (β-actin). In addition, CC50 values are determined based on the Cp values acquired for the housekeeping gene β-actin.
(§2) The culture medium consisted of minimal essential medium supplemented with 2% of heat-inactivated fetal calf serum, 0.04% gentamycin (50 mg/mL) and 2 mM of L-glutamine. Vero cells, obtained from ECACC, were suspended in culture medium and 75 μL/well was added in 96-well plates (10000 cells/well), which already contain the antiviral compounds. […] In addition, each plate contains wells which are assigned as virus controls (containing cells and virus in the absence of compound) and cell controls (containing cells in the absence of virus and compound). Once the cells were added in the plates, the plates were incubated in a fully humidified incubator (37° C., 5% CO2) until the next day. Dengue viruses serotype-1, 2, 3 and 4 were diluted in order to obtain a Cp of ˜22-24 in the assay. Therefore, 25 μL of virus suspension was added to all the wells containing test compound and to the wells assigned as virus control. In parallel, 25 μL of culture medium was added to the cell controls. Next, the plates were incubated for 3 days in a fully humidified incubator (37° C., 5% CO2). After 3 days, the supernatant was removed from the wells and the cells were washed twice with ice-cold PBS (˜100 μL). The cell pellets within the 96-well plates were stored at −80° C. for at least 1 day. Next, RNA was extracted using the Cells-to-CT™ lysis kit, according to the manufacturer's guideline (Life Technologies). The cell lysates can be stored at −80C or immediately used in the reverse transcription step.
(§3) In preparation of the reverse transcription step, mix A (table 3A) was prepared and 7.57 μL/well was dispensed in a 96-well plate. After addition of 5 μL of the cell lysates, a five minute denaturation step at 75° C. was performed (table 3B). Afterwards, 7.43 μL of mix B was added (table 3C) and the reverse transcription step was initiated (table 3D) to generate cDNA.
(§4) Finally, a RT-qPCR mix was prepared, mix C (table 4A), and 22.02 μL/well was dispensed in 96-well LightCycler qPCR plates to which 3 μL of cDNA was added and the qPCR was performed according to the conditions in table 4B on a LightCycler 480.
(§5) Using the LightCycler software and an in-house LIMS system, dose response curves for each compound were calculated and the half maximal effective concentration (EC50) and the half maximal cytotoxic concentration (CC50) were determined (Tables 5-8).

[2] = test system: DENV-2 16681 strain; experiment: microbe, parasite or virus in culture; type: cell-based, Dengue virus; settings: for EC50: DENV-2 16681 eGFP, Vero cells, MOI 0.5, 3 days; for SI: SI=CC50/EC50, DENV-2 antiviral assay
[3] = in vitro; settings: African green monkey
[4] = test system: DENV-1 strain TC974#666; experiment: Tetravalent RT-qPCR assay, serotype 1; type: cell-based, Dengue virus; settings: RT-qPCR serotype 1 TC974#666, Vero cells
Procedure: as §1, §2, §3, §4, §5

[5] = test system: DENV-2 strain 16681; experiment: Tetravalent RT-qPCR assay, serotype 2; type: cell-based, Dengue virus; settings: RT-qPCR serotype 2 16681, Vero cells
Procedure: as §1, §2, §3, §4, §5

[6] = test system: DENV-3 strain H87; experiment: Tetravalent RT-qPCR assay, serotype 3; type: cell-based, Dengue virus; settings: RT-qPCR serotype 3 H87, Vero cells
Procedure: as §1, §2, §3, §4, §5

[7] = test system: Vero cells; settings: African green monkey

| Structure (SMILES) | EC50 ([1]; Dengue virus, DENV4, Vero) [nM] | EC50 [2] [nM] | SI [2] | CC50 [3] [nM] | EC50 ([4]; Dengue virus, DENV1, Vero) [nM] | EC50 ([5]; Dengue virus, DENV2, Vero) [nM] | EC50 ([6]; Dengue virus, DENV3, Vero) [nM] | EC50 [1] [nM] | EC50 [4] [nM] | EC50 [5] [nM] | EC50 [6] [nM] | CC50 [7] [nM] |
| --- | --- | --- | --- | --- | --- | --- | --- | --- | --- | --- | --- | --- |
| COc1cc(NC(C(=O)N2CCc3ccc(OC(F)(F)F)cc32)c2ccc(Cl)cc2)cc(OCCC(C)C(=O)O)c1 (single isomer, unassigned) [Compound 1C] | 16 | 0.094 | 131193 | 12000 | 0.23 | 0.18 | 2.4 | – | – | – | – | – |
| COc1cc(NC(C(=O)N2CCc3ccc(OC(F)(F)F)cc32)c2ccc(Cl)cc2)cc(OCC2(CC(=O)O)CC2)c1 (single isomer, unassigned) [Compound 5A] | 58 | 0.51 | 26300 | 12000 | 0.58 | 0.42 | 8.1 | – | – | – | – | – |
| COc1cc(CCCCC(=O)O)cc(NC(C(=O)N2CCc3ccc(OC(F)(F)F)cc32)c2ccc(Cl)cc2)c1 (single isomer, unassigned) [Compound 14A] | 15 | 0.11 | 151558 | 16000 | 0.26 | 0.2 | 2.8 | – | – | – | – | – |
| COc1cc(NC(C(=O)N2CCc3ccc(OC(F)(F)F)cc32)c2ccc(Cl)cc2)cc(OC2CC(C(=O)O)C2)c1 (centres unmarked) [Compound 8B] | – | 0.023 | >102836 | – | – | – | – | 1.3 | 0.032 | 0.025 | 0.16 | 14000 |
| COc1cc(NC(C(=O)N2CCc3ccc(OC(F)(F)F)cc32)c2ccc(Cl)cc2)cc(OCC2CC(C(=O)O)C2)c1 (centres unmarked) [Compound 10B] | 22 | 0.11 | 109987 | – | 0.27 | 0.11 | 2.9 | – | – | – | – | 11000 |
| COc1cc(NC(C(=O)N2CCc3ccc(OC(F)(F)F)cc32)c2ccc(Cl)cc2)cc(OCC2CC(C(=O)O)C2)c1 (centres unmarked) [Compound 11B] | – | 0.11 | 118692 | – | – | – | – | 17 | 0.2 | 0.1 | 1.8 | 11000 |
| COc1cc(NC(C(=O)N2CCc3ccc(OC(F)(F)F)cc32)c2ccc(Cl)cc2OC)cc(OCC2CC2C(=O)O)c1 (centres unmarked) [Compound 19AB] | – | 0.012 | >390600 | – | – | – | – | 0.69 | 0.021 | 0.014 | 0.14 | 12000 |
| COc1cc(NC(C(=O)N2CCc3ccc(OC(F)(F)F)cc32)c2ccc(Cl)cc2OC)cc(OCC2CC2C(=O)O)c1 (centres unmarked) [Compound 19BB] | – | 0.038 | >148612 | – | – | – | – | 6.8 | 0.091 | 0.078 | 0.85 | 8800 |
| COc1cc(NC(C(=O)N2CCc3cc(OC)c(C(F)(F)F)cc32)c2ccc(Cl)cc2)cc(OCC2CC2C(=O)O)c1 (centres unmarked) [Compound 22AB] | – | 0.034 | >196427 | – | – | – | – | 3.3 | 0.091 | 0.029 | 0.49 | 12000 |
| COc1cc(NC(C(=O)N2CCc3cc(OC)c(C(F)(F)F)cc32)c2ccc(Cl)cc2)cc(OCC2CC2C(=O)O)c1 (centres unmarked) [Compound 22BB] | – | 0.46 | 27600 | – | – | – | – | 71 | 1.5 | 0.33 | 9 | 14000 |
| COc1cc(NC(C(=O)N2CCc3cc(OC)c(C(F)(F)F)cc32)c2ccc(Cl)cc2)cc(OC2CC(C(=O)O)C2)c1 (centres unmarked) [Compound 23B] | 2.7 | 0.062 | >88755 | – | 0.092 | 0.034 | 0.33 | – | – | – | – | 12000 |
| COc1cc(NC(C(=O)N2CCc3cc(OC)c(C(F)(F)F)cc32)c2ccc(Cl)cc2)cc(OCC2CC(C(=O)O)C2)c1 (centres unmarked) [Compound 24B] | 66 | 0.34 | 43100 | – | 2.2 | 0.26 | – | – | – | – | 14 | 12000 |
| COc1cc(NC(C(=O)N2CCc3cc(OC)c(C(F)(F)F)cc32)c2ccc(Cl)cc2)cc(OCC2CC(C(=O)O)C2)c1 (centres unmarked) [Compound 25B] | – | 0.28 | 52900 | – | – | – | – | 55 | 1.3 | 0.27 | 6.3 | 13000 |
| COc1cc(NC(C(=O)N2CCc3ccc(OC(F)(F)F)cc32)c2ccc(Cl)cc2)cc(OCC2(F)CC2C(=O)O)c1 (centres unmarked) [Compound 28AB] | – | 0.68 | 19000 | – | – | – | – | 69 | 0.41 | 0.31 | 5.3 | 13000 |
| COc1cc(NC(C(=O)N2CCc3ccc(OC(F)(F)F)cc32)c2ccc(Cl)cc2)cc(OCC2(F)CC2C(=O)O)c1 (centres unmarked) [Compound 29AB] | – | 0.53 | 22300 | – | – | – | – | 35 | 0.23 | 0.25 | 4.6 | 12000 |
| COc1cc(NC(C(=O)N2CCc3ccc(OC(F)(F)F)cc32)c2ccc(Cl)cc2)cc(OCC2(F)CC2C(=O)O)c1 (centres unmarked) [Compound 29BB] | – | 0.069 | 124722 | 12000 | – | – | – | 2.8 | 0.048 | 0.025 | 0.39 | – |
| COc1cc(NC(C(=O)N2CCc3cc(F)c(OC(F)(F)F)cc32)c2ccc(Cl)cc2)cc(OCC2CC(C(=O)O)C2)c1 (centres unmarked) [Compound 31A] | – | 0.2 | 70300 | – | – | – | – | 17 | 0.19 | 0.11 | 1.5 | 12000 |
